Key:
DGKζ = DGKζ (Homo sapiens (Human), UniProt Q13574); assay: Biochemical DGK IC50 assay, DGKζ ADP-Glo assay; conditions: 0.5 nM enzyme, 140 μM ATP, 80 μM DAG; read-out: DGKζ ADP-Glo assay IC50
Summary of the method: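 Full-length human DGKζ, His-TEV tagged and purified from baculovirus-infected Sf9 cells, assayed by ADP-Glo with DAG/PS lipid micelle substrate prepared in 25 mM HEPES pH 7.0 with octyl glucoside. Final compound concentrations spanned 1.55–10000 nM or 23.3–150000 nM.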

DGKα = DGKα (Homo sapiens (Human), UniProt P23743); assay: Biochemical DGK IC50 assay, DGKα ADP-Glo assay; conditions: 7.5 nM enzyme, 140 μM ATP, 80 μM DAG
Summary of the method: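 ADP-Glo read-out with full-length DGKα on DAG/PS lipid micelle substrate in 25 mM HEPES pH 7.0, 0.5 mM EDTA, 160 mM octyl β-D-glucopyranoside. Compound final concentrations spanned 1.55˜10000 nM or 23.3˜150000 nM.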

Sequence of DGKζ (Q13574 other isoform, or with tags, fused parts or gaps): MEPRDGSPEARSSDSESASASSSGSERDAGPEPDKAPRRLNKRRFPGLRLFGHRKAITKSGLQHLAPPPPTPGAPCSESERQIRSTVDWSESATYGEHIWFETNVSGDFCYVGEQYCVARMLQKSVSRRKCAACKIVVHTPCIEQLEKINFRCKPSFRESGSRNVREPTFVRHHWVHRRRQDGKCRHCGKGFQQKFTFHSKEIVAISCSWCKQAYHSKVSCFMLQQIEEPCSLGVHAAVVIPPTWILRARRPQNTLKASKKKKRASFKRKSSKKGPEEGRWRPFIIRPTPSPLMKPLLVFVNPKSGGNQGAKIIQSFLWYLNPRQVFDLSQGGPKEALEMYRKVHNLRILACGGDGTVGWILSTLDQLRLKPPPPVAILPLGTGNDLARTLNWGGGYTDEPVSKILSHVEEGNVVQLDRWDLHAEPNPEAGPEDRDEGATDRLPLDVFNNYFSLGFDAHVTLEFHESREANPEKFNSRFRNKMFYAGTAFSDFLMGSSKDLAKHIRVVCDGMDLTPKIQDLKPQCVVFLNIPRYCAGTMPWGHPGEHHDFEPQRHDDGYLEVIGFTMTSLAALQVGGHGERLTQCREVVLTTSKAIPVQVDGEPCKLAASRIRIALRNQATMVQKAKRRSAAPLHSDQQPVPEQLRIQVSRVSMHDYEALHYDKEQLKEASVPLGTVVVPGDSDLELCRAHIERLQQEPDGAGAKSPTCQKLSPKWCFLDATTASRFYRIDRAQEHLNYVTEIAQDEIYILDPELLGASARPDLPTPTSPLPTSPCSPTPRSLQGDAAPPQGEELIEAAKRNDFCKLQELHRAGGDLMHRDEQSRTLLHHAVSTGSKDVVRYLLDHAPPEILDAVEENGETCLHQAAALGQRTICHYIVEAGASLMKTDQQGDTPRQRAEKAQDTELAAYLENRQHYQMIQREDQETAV
Sequence of DGKα (P23743 whole entry): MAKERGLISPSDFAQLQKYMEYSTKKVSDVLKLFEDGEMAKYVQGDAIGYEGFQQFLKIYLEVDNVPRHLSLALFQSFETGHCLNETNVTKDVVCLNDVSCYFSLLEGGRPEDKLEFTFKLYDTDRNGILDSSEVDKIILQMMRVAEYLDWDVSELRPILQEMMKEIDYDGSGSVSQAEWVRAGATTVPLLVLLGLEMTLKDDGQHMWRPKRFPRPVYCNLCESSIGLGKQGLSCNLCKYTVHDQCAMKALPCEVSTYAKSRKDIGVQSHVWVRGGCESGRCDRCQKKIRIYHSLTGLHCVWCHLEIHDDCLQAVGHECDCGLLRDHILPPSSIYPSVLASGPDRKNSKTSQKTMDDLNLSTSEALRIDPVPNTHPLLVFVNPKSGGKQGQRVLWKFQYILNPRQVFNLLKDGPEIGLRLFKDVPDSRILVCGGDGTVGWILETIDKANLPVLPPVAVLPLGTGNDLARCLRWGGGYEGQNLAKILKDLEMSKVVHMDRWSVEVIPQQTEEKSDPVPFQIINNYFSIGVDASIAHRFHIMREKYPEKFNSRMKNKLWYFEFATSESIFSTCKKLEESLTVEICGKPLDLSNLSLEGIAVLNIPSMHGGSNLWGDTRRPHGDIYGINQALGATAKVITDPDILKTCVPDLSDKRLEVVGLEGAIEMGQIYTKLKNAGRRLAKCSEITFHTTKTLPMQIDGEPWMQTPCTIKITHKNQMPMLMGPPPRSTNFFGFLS

SMILES | IC50 (DGKζ) [µM] | IC50 (DGKα) [µM]
CC(c1ccc2nccnc2c1)N1C[C@H](CCO)N(c2cc(=O)n(C)c3cn(CC#N)nc23)C[C@H]1C (stereo partly drawn) [Compound A145, 2-(7-((2S,5R)-2-(2-hydroxyethyl)-5-methyl-4-(1-(quinoxalin-6-yl)ethyl)piperazin-1-yl)-4-methyl-5-oxo-4,5-dihydro-2H-pyrazolo[4,3-b]pyridin-2-yl)acetonitrilecetonitrile] | 0.055 | 20.3
CC[C@H]1CN(C(C)c2ncc(F)cc2F)[C@H](CC)CN1c1cc(=O)n(C)c2cn(CC#N)nc12 (stereo partly drawn) [Compound A148] | 0.19 | 0.034
CC[C@H]1CN(C(C)c2cccc(CN(C)C)c2)[C@H](CC)CN1c1cc(=O)n(C)c2cn(CC#N)nc12 (stereo partly drawn) [Compound A151] | 2.04 | > 10
CC[C@H]1CN(C(C)c2ccc(F)cc2CO)[C@H](CC)CN1c1cc(=O)n(C)c2cn(CC#N)nc12 (stereo partly drawn) [Compound A152, 2-(7-((2S,5R)-2,5-diethyl-4-(1-(4-fluoro-2-(hydroxymethyl)phenyl)ethyl)piperazin-1-yl)-4-methyl-5-oxo-4,5-dihydro-2H-pyrazolo[4,3-b]pyridin-2-yl)acetonitrile] | 1.77 | 4.38
CC(c1ccc2nccnc2c1)N1C[C@H](C)N(c2nc(=O)n(C)c3cn(CC#N)nc23)C[C@H]1C (stereo partly drawn) [Compound A154, 2-(7-((2S,5R)-2,5-dimethyl-4-(1-(quinoxalin-6-yl)ethyl)piperazin-1-yl)-4-methyl-5-oxo-4,5-dihydro-2H-pyrazolo[4,3-d]pyrimidin-2-yl)acetonitrile] | 0.104 | 9.21
CC[C@@H]1CN(c2c(C#N)c(=O)n(C)c3cn(CC#N)nc23)[C@@H](C)CN1C(C)c1ccc2nccnc2c1 (stereo partly drawn) [Compound A156, 2-(cyanomethyl)-7-((2S,5R)-5-ethyl-2-methyl-4-(1-(quinoxalin-6-yl)ethyl)piperazin-1-yl)-4-methyl-5-oxo-4,5-dihydro-2H-pyrazolo[4,3-b]pyridine-6-carbonitrile] | 0.018 | 1.75
CC[C@H]1CN(C(C)c2ccc(C(F)(F)F)cc2OC)[C@H](CC)CN1c1cc(=O)n(C)c2cn(CC#N)nc12 (stereo partly drawn) [Compound A157] | 1.03 | 2.99
CC(c1ccc2nccnc2c1)N1C[C@H](CC#N)N(c2cc(=O)n(C)c3cn(CC#N)nc23)C[C@H]1C (stereo partly drawn) [Compound A158, 2-((2S,5R)-1-(2-(cyanomethyl)-4-methyl-5-oxo-4,5-dihydro-2H-pyrazolo[4,3-b]pyridin-7-yl)-5-methyl-4-(1-(quinoxalin-6-yl)ethyl)piperazin-2-yl)acetonitrile] | 0.381 | > 10
CC[C@H]1CN(C(C)c2ccc3c(n2)OCCO3)[C@H](CC)CN1c1cc(=O)n(C)c2cn(CC#N)nc12 (stereo partly drawn) [Compound A159, 2-(7-((2S,5R)-4-(1-(2,3-dihydro-[1,4]dioxino[2,3-b]pyridin-6-yl)ethyl)-2,5-diethylpiperazin-1-yl)-4-methyl-5-oxo-4,5-dihydro-2H-pyrazolo[4,3-b]pyridin-2-yl)acetonitrile] | 0.03 | 0.19
CC[C@H]1CN(C(C)c2ccc(OC(C)C)cc2)[C@H](CC)CN1c1cc(=O)n(C)c2cn(CC#N)nc12 (stereo partly drawn) [Compound A160] | 0.247 | 0.052
CC[C@H]1CN(C(C)c2ccc(F)cc2NC)[C@H](CC)CN1c1cc(=O)n(C)c2cn(CC#N)nc12 (stereo partly drawn) [Compound A163] | 4.42 | > 10
COCC[C@H]1CN(C(C)c2ccc3nccnc3c2)[C@H](C)CN1c1cc(=O)n(C)c2cn(CC#N)nc12 (stereo partly drawn) [Compound A164, 2-(7-((2S,5R)-2-(2-methoxyethyl)-5-methyl-4-(1-(quinoxalin-6-yl)ethyl)piperazin-1-yl)-4-methyl-5-oxo-4,5-dihydro-2H-pyrazolo[4,3-b]pyridin-2-yl)acetonitrile] | 0.072 | 8.97
CC[C@H]1CN(C(C)c2ccccc2NC(C)=O)[C@H](CC)CN1c1cc(=O)n(C)c2cn(CC#N)nc12 (stereo partly drawn) [Compound A165] | 2.84 | > 10
CC[C@H]1CN(C(C)c2ccc3c(n2)OCCN3C)[C@H](CC)CN1c1cc(=O)n(C)c2cn(CC#N)nc12 (stereo partly drawn) [Compound A166, 2-(7-((2S,5R)-2,5-diethyl-4-(1-(1-methyl-2,3-dihydro-1H-pyrido[2,3-b][1,4]oxazin-6-yl)ethyl)piperazin-1-yl)-4-methyl-5-oxo-4,5-dihydro-2H-pyrazolo[4,3-b]pyridin-2-yl)acetonitrile] | 2.38 | > 10
CC[C@H]1CN(C(C)c2ccc3nccnc3c2)[C@H](CC)CN1c1cc(=O)n(CC2CC2)c2cn(CC#N)nc12 (stereo partly drawn) [Compound A167] | 1.02 | > 10
CC(c1ccc2nccnc2c1)N1C[C@H](C)N(c2c(F)c(=O)n(C)c3cn(CC#N)nc23)C[C@H]1C (stereo partly drawn) [Compound A168, 2-(7-((2S,5R)-2,5-dimethyl-4-(1-(quinoxalin-6-yl)ethyl)piperazin-1-yl)-6-fluoro-4-methyl-5-oxo-4,5-dihydro-2H-pyrazolo[4,3-b]pyridin-2-yl)acetonitrile] | 0.028 | 6.08
CC[C@H]1CN(C(C)c2ccc(F)cc2OC(F)(F)F)[C@H](CC)CN1c1cc(=O)n(C)c2cn(CC#N)nc12 (stereo partly drawn) [Compound A170, 2-(7-((2S,5R)-2,5-diethyl-4-(1-(4-fluoro-2-(trifluoromethoxy)phenyl)ethyl)piperazin-1-yl)-4-methyl-5-oxo-4,5-dihydro-2H-pyrazolo[4,3-b]pyridin-2-yl)acetonitrile] | 0.887 | > 10

SMILES | IC50 (DGKζ) [µM] | IC50 (DGKα) [µM]
CC[C@H]1CN(C(C)c2nccn2CC)[C@H](CC)CN1c1cc(=O)n(C)c2cn(CC#N)nc12 (stereo partly drawn) [Compound A174] | 57.9 | 105
CC[C@H]1CN(C(C)c2ccc(F)cc2C2CC2)[C@H](CC)CN1c1cc(=O)n(C)c2cn(CC#N)nc12 (stereo partly drawn) [Compound A175] | 0.305 | > 10
CC[C@H]1CN(C(C)c2cc3ccccc3n2CC)[C@H](CC)CN1c1cc(=O)n(C)c2cn(CC#N)nc12 (stereo partly drawn) [Compound A176] | 0.093 | 5.67
CC(c1ccc2nccnc2c1)N1CCN(c2cc(=O)n(C)c3cn(CC#N)nc23)C[C@@H]1C (stereo partly drawn) [Compound A178] | 6.9 | > 10
CCC1CN(c2c(Br)c(=O)n(C)c3cn(CC#N)nc23)CCN1[C@@H](C)c1ccc2nccnc2c1 (stereo partly drawn) [Compound A179a, 2-(6-bromo-7-((2S,5R)-3-ethyl-4-(1-(quinoxalin-6-yl)ethyl)piperazin-1-yl)-4-methyl-5-oxo-4,5-dihydro-2H-pyrazolo[4,3-b]pyridin-2-yl)acetonitrile] | 7.88 | > 10
CC(c1ccc2nccnc2c1)N1CCN(c2cc(=O)n(C)c3cn(CC#N)nc23)CC1CO (stereo not drawn) [Compound A184] | 6.01 | > 10
CC#CCn1cc2c(n1)c(N1C[C@@H](CC)N(C(C)c3nc4ccccc4n3CC)C[C@@H]1CC)cc(=O)n2C (stereo partly drawn) [Compound A186] | 0.059 | 6.37
CC[C@H]1CN(C(C)c2ccc(F)cc2C(C)O)[C@H](CC)CN1c1cc(=O)n(C)c2cn(CC#N)nc12 (stereo partly drawn) [Compound A188] | 0.786 | > 10
CC[C@@H]1CN(c2c(C#N)c(=O)n(CC#N)c3cn(CC#N)nc23)[C@@H](C)CN1C(C)c1ccc2nccnc2c1 (stereo partly drawn) [Compound A189, 2,2′-(6-cyano-7-((2S,5R)-5-ethyl-2-methyl-4-(1-(quinoxalin-6-yl)ethyl)piperazin-1-yl)-5-oxo-2H-pyrazolo[4,3-b]pyridine-2,4(5H)-diyl)diacetonitrile] | 3.1 | > 10
CCCn1c(C(C)N2C[C@H](CC)N(c3cc(=O)n(C)c4cn(CC#N)nc34)C[C@H]2CC)nc2ccccc21 (stereo partly drawn) [Compound A192, 2-(7-((2S,5R)-2,5-diethyl-4-(1-(1-propyl-1H-benzo[d]imidazol-2-yl)ethyl)piperazin-1-yl)-4-methyl-5-oxo-4,5-dihydro-2H-pyrazolo[4,3-b]pyridin-2-yl)acetonitrile] | 0.059 | > 10
CC[C@H]1CN(C(C)c2nc3ccccc3n2C(C)C)[C@H](CC)CN1c1cc(=O)n(C)c2cn(CC#N)nc12 (stereo partly drawn) [Compound A193] | 5.73 | > 10
CCc1cc(F)ccc1C(C)N1C[C@H](CC)N(c2cc(=O)n(C)c3cn(CC#N)nc23)C[C@H]1CC (stereo partly drawn) [Compound A205, 2-(7-((2S,5R)-2,5-diethyl-4-(1-(2-ethyl-4-fluorophenyl)ethyl)piperazin-1-yl)-4-methyl-5-oxo-4,5-dihydro-2H-pyrazolo[4,3-b]pyridin-2-yl)acetonitrile] | 0.151 | 63.7
CC[C@@H]1CN(c2cc(=O)n(C)c3cn(CC#N)nc23)[C@@H](CC)CN1C(=O)c1cccc(C(F)(F)F)c1 [Compound A206, 2-(7-((2S,5R)-2,5-diethyl-4-(3-(trifluoromethyl)benzoyl)piperazin-1-yl)-4-methyl-5-oxo-4,5-dihydro-2H-pyrazolo[4,3-b]pyridin-2-yl)acetonitrile] | 2.27 | 2.59
CC[C@H]1CN(C(C)c2cccc(=O)n2CC)[C@H](CC)CN1c1cc(=O)n(C)c2cn(CC#N)nc12 (stereo partly drawn) [Compound A207] | 4.05 | > 10
CC[C@H]1CN(C(C)c2cn(CC)c(C)n2)[C@H](CC)CN1c1cc(=O)n(C)c2cn(CC#N)nc12 (stereo partly drawn) [Compound A208] | > 10 | > 10
Cc1c2c(nn1CC#N)c(N1C[C@@H](C)N(C(C)c3ccc4nccnc4c3)C[C@@H]1C)cc(=O)n2C (stereo partly drawn) [Compound A209, 2-(7-((2S,5R)-2,5-dimethyl-4-(1-(quinoxalin-6-yl)ethyl)piperazin-1-yl)-3,4-dimethyl-5-oxo-4,5-dihydro-2H-pyrazolo[4,3-b]pyridin-2-yl)acetonitrile] | 0.05 | 21.6
